# Experimental data reported in patent US9375006B2, “5- halogenopyrazole benzofuranyl carboxamides” (BAYER CROPSCIENCE AG, priority 2012, dated 2016).
# What was measured:
# [1] = system: Fusarium nivale (var. majus); experiment: Fusarium nivale (var. majus) test (wheat) / preventive; type: in vivo; conditions: 500 ppm of active ingredient, evaluated 5 days after inoculation
# Source text: Solvent: 49 parts by weight of N,N-dimethylacetamide Emulsifier: 1 part by weight of alkylaryl polyglycol ether […] To test for preventive activity, young plants are sprayed with the preparation of active compound or active compound combination at the stated rate of application. After the spray coating has been dried, the plants are slightly injured by using a sandblast and afterwards they are sprayed with a conidia suspension of Fusarium nivale (var. majus). The plants are placed in the greenhouse under a translucent incubation cabinet at a temperature of approximately 10° C. and a relative atmospheric humidity of approximately 100%.
# [2] = system: Phakopsora pachyrhizi; experiment: In vivo Phakopsora test (soybeans) / preventive; conditions: 10 ppm of active ingredient, evaluated 7 days after inoculation
# [3] = logP by HPLC on reversed phase columns (EEC directive 79/831 Annex V.A8); type: physicochemical; conditions: method [a]: LC-MS at pH 2.7, 0.1% formic acid in water / acetonitrile
# Method: Measurement of log P values was performed according EEC directive 79/831 Annex V.A8 by HPLC (High Performance Liquid Chromatography) on reversed phase columns with the following methods: ^[a] Measurement of LC-MS was done at pH 2.7 with 0.1% formic acid in water and with acetonitrile (contains 0.1% formic acid) as eluent with a linear gradient from 10% acetonitrile to 95% acetonitrile. ^[b] Measurement with LC-MS was done at pH 7.8 with 0.001 molar ammonium hydrogen carbonate solution in water as eluent with a linear gradient from 10% acetonitrile to 95% acetonitrile.
# [4] = system: Botrytis cinerea; experiment: In vivo preventive test on Botrytis cinerea (grey mould), gherkin plants; conditions: preventive spray, grading 4 to 5 days after contamination
# Method: (§1) The active ingredients tested are prepared by homogenization in a mixture of acetone/tween/DMSO and then diluted with water to obtain the desired active material concentration.
# (§2) Gherkin plants (“Vert petit de Paris” variety), sown in starter cups on a 50/50 peat soil-pozzolana substrate and grown at 24° C., are treated at the Z11 cotyledon stage by spraying with the active ingredient prepared as described above. Plants, used as controls, are treated with the mixture of acetone/tween/DMSO/water not containing the active material.
# After 24 hours, the plants are contaminated by spraying the cotyledons with an aqueous suspension of cryopreserved Botrytis cinerea spores (50 000 spores per ml). The spores are suspended in a nutrient solution composed of 10 g/L of PDB, 50 g/L of D-Fructose, 2 g/L of NH4NO3 and 1 g/L of KH2PO4. The contaminated gherkin plants are incubated at 17° C. and at 90% relative humidity.
# Grading (% of efficacy) is carried out 4 to 5 days after the contamination, in comparison with the control plants.
# [5] = system: Pyrenophora teres; experiment: In vivo preventive test on Pyrenophora teres (net blotch on barley); conditions: barley plants, preventive spray, grading 14 days after contamination
# Method: Barley plants (“Plaisant” variety), sown in starter cups on a 50/50 peat soil-pozzolana substrate and grown at 22° C., are treated at the 1-leaf stage (10 cm height) by spraying with the active ingredient prepared as described above. Plants, used as controls, are treated with the mixture of acetone/tween/DMSO/water not containing the active material. After 24 hours, the plants are contaminated by spraying the leaves with an aqueous suspension of Pyrenophora teres spores (12 000 spores per ml). The spores are collected from a 12-day-old culture. The contaminated barley plants are incubated for 48 hours at 20° C. and at 100% relative humidity, and then for 12 days at 20° C. at 70-80% relative humidity. Grading (% of efficacy) is carried out 14 days after the contamination, in comparison with the control plants.
# [6] = system: Septoria tritici; experiment: In vivo preventive test on Septoria tritici (leaf spot on wheat); conditions: 500 ppm, wheat plants, preventive spray, grading 24 days after contamination
# Method: Wheat plants (“Scipion” variety), sown in starter cups on a 50/50 peat soil-pozzolana substrate and grown at 22° C., are treated at the 1-leaf stage (10 cm height) by spraying with the active ingredient prepared as described above. Plants, used as controls, are treated with the mixture of acetone/tween/DMSO/water not containing the active material. After 24 hours, the plants are contaminated by spraying the leaves with an aqueous suspension of cryopreserved Septoria tritici spores (500 000 spores per ml). The contaminated wheat plants are incubated for 72 hours at 18° C. and at 100% relative humidity, and then for 21 days at 90% relative humidity. Grading (% of efficacy) is carried out 24 days after the contamination, in comparison with the control plants.
# [7] = system: Sphaerotheca fuliginea; experiment: In vivo preventive test on Sphaerotheca fuliginea (powdery mildew on cucurbits); conditions: gherkin plants, preventive spray, grading 12 days after contamination
# Method: as §1, §2
# After 24 hours, the plants are contaminated by spraying the cotyledons with an aqueous suspension of Sphaerotheca fuliginea spores (100 000 spores per ml). The spores are collected from infected plants. The contaminated gherkin plants are incubated at about 20° C. and at 70-80% relative humidity.
# (§3) Grading (% of efficacy) is carried out 12 days after the contamination, in comparison with the control plants.
# [8] = system: Uromyces appendiculatus; experiment: In vivo preventive test on Uromyces appendiculatus (bean rust); conditions: bean plants, preventive spray, grading 11 days after contamination
# Method: (§4) The active ingredients tested are prepared by homogenization in a mixture of acetone/tween/DMSO, and then diluted with water to obtain the desired active material concentration.
# Bean plants (“Saxa” variety), sown in starter cups on a 50/50 peat soil-pozzolana substrate and grown at 24° C., are treated at the 2-leaf stage (9 cm height) by spraying with the active ingredient prepared as described above. Plants, used as controls, are treated with the mixture of acetone/tween/DMSO/water not containing the active material.
# (§5) After 24 hours, the plants are contaminated by spraying the leaves with an aqueous suspension of Uromyces appendiculatus spores (150 000 spores per ml). The spores are collected from infected plants and are suspended in water containing 2.5 ml/l of Tween 80 at 10%. The contaminated bean plants are incubated for 24 hours at 20° C. and at 100% relative humidity, and then for 10 days at 20° C. and at 70-80% relative humidity.
# Grading (% of efficacy) is carried out 11 days after the contamination, in comparison with the control plants.
# [9] = system: Alternaria brassicae; experiment: In vivo preventive test on Alternaria brassicae (leaf spot on radish); conditions: radish plants, preventive spray, grading 6 days after contamination
# Method: Radish plants (“Pernod Clair” variety), sown in starter cups on a 50/50 peat soil-pozzolana substrate and grown at 17° C., are treated at the cotyledon stage by spraying with the active ingredient prepared as described above. Plants, used as controls, are treated with the mixture of acetone/tween/DMSO/water not containing the active material. After 24 hours, the plants are contaminated by spraying the cotyledons with an aqueous suspension of Alternaria brassicae spores (50 000 spores per ml). The spores are collected from a 15-day-old culture. The contaminated radish plants are incubated at 20° C. and at 100% relative humidity. Grading (% of efficacy) is carried out 6 days after the contamination, in comparison with the control plants.
# [10] = system: Puccinia recondita; experiment: In vivo preventive test on Puccinia recondita (brown rust on wheat); conditions: wheat plants, preventive spray, grading 12 days after contamination
# Method: as §4
# Wheat plants (“Scipion” variety), sown in starter cups on a 50/50 peat soil-pozzolana substrate and grown at 22° C., are treated at the 1-leaf stage (10 cm height) by spraying with the active ingredient prepared as described above. Plants, used as controls, are treated with the mixture of acetone/tween/DMSO/water not containing the active material.
# as §5, with “of Puccinia […]” for “of Uromyces appendiculatus”, “spores (100” for “spores (150”, “from an” for “from”, “infected plant” for “infected plants”, “contaminated wheat” for “contaminated bean”
# as §3
SMILES,logP [3],Eff. % [6],Eff. % ([7]; 500 ppm),Eff. % ([8]; 500 ppm),Eff. % ([10]; 500 ppm),further results
Cn1nc(C(F)F)c(C(=O)Nc2cccc3c2C(C)(C)OC3(C)C)c1F [Example 1],,,,,,Eff. % [1]: 92%
Cn1nc(C(F)F)c(C(=O)Nc2cccc3c2C(C)(C)OC3(C)C)c1Cl [Example 2],,,,,,Eff. % [2]: 96%; Eff. % [1]: 86%
CCC1(CC)OC(C)c2c(NC(=O)c3cn(C)nc3C(F)F)cccc21 (stereo not shown) [Example 6],2.9[a],100%,100%,100%,,Eff. % ([4]; 500 ppm): 100%; Eff. % ([5]; 500 ppm): 92%
CCC1(CC)OC(C(C)C)c2c(NC(=O)c3c(C(F)F)nn(C)c3F)cccc21 (stereo not shown) [Example 8],4.06[a],86%,100%,100%,98%,Eff. % ([9]; 500 ppm): 83%
CCC1(CC)OC(C)c2c(NC(=O)c3c(C(F)F)nn(C)c3Cl)cccc21 (stereo not shown) [Example 9],3.48[a],93%,94%,100%,100%,
CCC1(CC)OC(C(C)C)c2c(NC(=O)c3cn(C)nc3C(F)F)cccc21 (stereo not shown) [Example 12],3.63[a],86%,100%,100%,94%,Eff. % ([9]; 500 ppm): 78%
CCC1(CC)OC(C)c2c(NC(=O)c3c(C(F)F)nn(C)c3F)cccc21 (stereo not shown) [Example 13],3.27[a],79%,100%,100%,100%,Eff. % ([4]; 500 ppm): 100%; Eff. % ([5]; 500 ppm): 83%
CC(C)C1OC(C)(C)c2cccc(NC(=O)c3cn(C)nc3C(F)F)c21 (stereo not shown) [Example 25],2.76[a],,,,,Eff. % ([9]; 100 ppm): 75%; Eff. % ([4]; 100 ppm): 98%; Eff. % ([5]; 100 ppm): 83%; Eff. % ([10]; 100 ppm): 98%; Eff. % ([7]; 100 ppm): 100%; Eff. % ([8]; 100 ppm): 99%
